System: AGS cells xenograft tumors
Test: Subcutaneous AGS xenograft tumors in Balb/c mice
Type: in vivo
Details: single agent, low dose (PI103 5 mg/kg/d; (5Z)-7-oxozeaenol 3 mg/kg/d)
Description: To validate the beneficial response to one of the combination predicted and validated in cell line experiments the inventors generated subcutaneously injected xenograft tumors in Balb/c mice. 100 μl of 2×10^5 AGS cells were mixed with 100 μl of Matrigel and injected subcutaneously n the right flanks of 40 mice. Tumors were allowed to grow for 4 weeks, and mice with palpable tumors (n=30) were randomized to four groups: control, PI103 (5 mg/kg/d), (5Z)-7-oxozeaenol (3 mg/kg/d) and combination group which received both PI103 (5 mg/kg/d) and (5Z)-7oxozeaenol (3 mg/kg/d). Mice were injected with inhibitors or vehicle three times per week for a total of seven injections. Tumors were measured twice weekly using callipers and estimated volume from the formula V=0.5*d12*d2, where d1 is shortest diameter and d2 is longest diameter of tumor. Randomization was set up so that tumor volume was similar among groups at onset of treatment. […] Similar results were obtained for Mann-Whitney tests.

| SMILES | activity of individual agent on tumor size compared to control |
| --- | --- |
| COc1cc(O)c2c(c1)/C=C/C[C@H](O)[C@H](O)C(=O)/C=C\C[C@H](C)OC2=O [(5Z)-7-oxozeaenol] | non-significant |
| Oc1cccc(-c2nc(N3CCOCC3)c3oc4ncccc4c3n2)c1 [PI103] | non-significant |

Reference: patent US20170103183A1, “Model Generation for Drug Determination” (NORWEGIAN UNIVERSITY OF SCIENCE AND TECHNOLOGY, priority 2015, published 2017)
